Experimental data from patent US20100076015A1, “Aminopyridine Derivatives” (VANTIA LIMITED, priority 2008, published 2010).

Target: T1, Human KLK1 (Homo sapiens, UniProt P06870)
T1 construct: purchased Callbiochem (Calbiochem)
Assay: Determination of the IC50 for KLK1 (fluorogenic substrate H-DVal-Leu-Arg-AFC)
Assay type: biochemical
Conditions: 37° C.
How it was run: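 IC50 values reflect residual human KLK1 activity, read as initial rate from optical absorbance change at 410 nm. Incubations ran at 37° C with H-DVal-Leu-Arg-AFC as substrate across a compound concentration series.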

T1 sequence (P06870 25-262): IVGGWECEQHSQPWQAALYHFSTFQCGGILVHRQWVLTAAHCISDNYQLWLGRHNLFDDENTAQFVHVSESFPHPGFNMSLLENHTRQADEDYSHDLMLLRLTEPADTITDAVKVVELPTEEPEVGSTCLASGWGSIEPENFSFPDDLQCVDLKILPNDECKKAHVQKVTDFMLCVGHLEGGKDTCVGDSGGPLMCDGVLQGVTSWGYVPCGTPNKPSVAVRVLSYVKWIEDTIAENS

In order of rising IC50:
1. CCC(C)[C@@H](N)C(=O)N[C@@H](Cc1ccc(Cl)c(Cl)c1)C(=O)NCc1ccc(N)nc1 (stereo partly drawn) [Example 35, (R)-2-Amino-3-methyl-pentanoic acid [(S)-1-[(6-amino-pyridin-3-ylmethyl)-carbamoyl]-2-(3,4-dichloro-phenyl)-ethyl]-amide]  0.47 nM
2. CCC(C)[C@@H](N)C(=O)N[C@@H](CC1CCCC2CCCCC21)C(=O)NCc1ccc(N)nc1C (stereo partly drawn) [Example 187, (R)-2-Amino-3-methyl-pentanoic acid [(S)-1-[(6-amino-2-methyl-pyridin-3-ylmethyl)-carbamoyl]-2-(decahydro-naphthalen-1-yl)-ethyl]-amide]  0.71 nM
3. CC(C)N1CCC[C@@H]1C(=O)N[C@@H](Cc1ccc(Cl)cc1Cl)C(=O)NCc1ccc(N)nc1 [Example 127, (R)-1-Isopropyl-pyrrolidine-2-carboxylic acid [(S)-1-[(6-amino-pyridin-3-ylmethyl)-carbamoyl]-2-(2,4-dichloro-phenyl)-ethyl]-amide]  0.9 nM
4. Nc1ccc(CNC(=O)[C@H](CC2CCCC3CCCCC32)NC(=O)[C@H]2CCCN2)cn1 (stereo partly drawn) [Example 15, (R)-Pyrrolidine-2-carboxylic acid [(S)-1-[(6-amino-pyridin-3-ylmethyl)-carbamoyl]-2-(decahydro-naphthalen-1-yl)-ethyl]-amide]  1.2 nM
5. Nc1ccc(CNC(=O)[C@H](Cc2ccc(F)c(F)c2)NC(=O)[C@H]2CCCCN2)cn1 [Example 74, (R)-Piperidine-2-carboxylic acid [(S)-1-[(6-amino-pyridin-3-ylmethyl)-carbamoyl]-2-(3,4-difluoro-phenyl)-ethyl]-amide]  1.8 nM
6. CC(C)CN(C)[C@@H](C)C(=O)N[C@@H](Cc1ccc(F)c(F)c1)C(=O)NCc1ccc(N)nc1 [Example 177, (S)—N-[(S)-1-[(6-Amino-pyridin-3-ylmethyl)-carbamoyl]-2-(3,4-difluoro-phenyl)-ethyl]-2-(isobutyl-methyl-amino)-propionamide]  1.9 nM
7. CC1CCCC(C)N1CC(=O)N[C@@H](Cc1ccc(F)cc1)C(=O)NCc1ccc(N)nc1 (stereo partly drawn) [Example 378, (S)—N-(6-Amino-pyridin-3-ylmethyl)-2-[2-(2,6-dimethyl-piperidin-1-yl)-acetylamino]-3-(4-fluoro-phenyl)-propionamide]  2.5 nM
8. C[C@@H](C(=O)N[C@@H](Cc1ccc(F)c(F)c1)C(=O)NCc1ccc(N)nc1)N1CCCC1 [Example 357, (S)—N-[(S)-1-[(6-Amino-pyridin-3-ylmethyl)-carbamoyl]-2-(3,4-difluoro-phenyl)-ethyl]-2-pyrrolidin-1-yl-propionamide]  3 nM
9. Cc1cc[nH]c1C(=O)N[C@@H](Cc1ccc(F)c(F)c1)C(=O)NCc1ccc(N)nc1C [Example 286, 3-Methyl-1H-pyrrole-2-carboxylic acid [(S)-1-[(6-amino-2-methyl-pyridin-3-ylmethyl)-carbamoyl]-2-(3,4-difluoro-phenyl)-ethyl]-amide]  4.3 nM
10. CC(C)[C@H](C(=O)N[C@@H](Cc1cccc(Cl)c1)C(=O)NCc1ccc(N)nc1)N(C)C [Example 406, (R)—N-[(S)-1-[(6-Amino-pyridin-3-ylmethyl)-carbamoyl]-2-(3-chloro-phenyl)-ethyl]-2-dimethylamino-3-methyl-butyramide]  4.7 nM
11. COC(=O)c1ccc(C(=O)N[C@@H](Cc2cccc(C(F)(F)F)c2)C(=O)NCc2ccc(N)nc2)[nH]1 [Example 274, 5-[(S)-1-[(6-Amino-pyridin-3-ylmethyl)-carbamoyl]-2-(3-trifluoromethyl-phenyl)-ethylcarbamoyl]-1H-pyrrole-2-carboxylic acid methyl ester]  4.8 nM
12. CN[C@H](Cc1ccccc1)C(=O)N[C@@H](Cc1ccc(F)c(F)c1)C(=O)NCc1ccc(N)nc1 [Example 81, (R)—N-[(S)-1-[(6-Amino-pyridin-3-ylmethyl)carbamoyl]-2-(3,4-difluoro-phenyl)-ethyl]-2-methylamino-3-phenyl-propionamide]  5 nM
13. CC(C)[C@H](C(=O)N[C@@H](Cc1ccc(F)c(F)c1)C(=O)NCc1ccc(N)nc1)N(C)C [Example 359, (R)—N-[(S)-1-[(6-Amino-pyridin-3-ylmethyl)-carbamoyl]-2-(3,4-difluoro-phenyl)-ethyl]-2-dimethylamino-3-methyl-butyramide]  5 nM
14. CN[C@H](C)C(=O)N[C@@H](Cc1ccc(F)cc1)C(=O)NCc1ccc(N)nc1 [Example 87, (R)—N-[(S)-1-[(6-Amino-pyridin-3-ylmethyl)-carbamoyl]-2-(4-fluoro-phenyl)-ethyl]-2-methylamino-propionamide]  6.4 nM
15. CCC(C)[C@@H](C(=O)N[C@@H](Cc1ccc(F)c(F)c1)C(=O)NCc1ccc(N)nc1)N(C)C(C)C (stereo partly drawn) [Example 349, (S)-2-(Isopropyl-methyl-amino)-3-methyl-pentanoic acid [(S)-1-[(6-amino-pyridin-3-ylmethyl)-carbamoyl]-2-(3,4-difluoro-phenyl)-ethyl]-amide]  7.8 nM
16. Nc1ccc(CNC(=O)[C@H](Cc2cccc(Cl)c2)NC(=O)CN2CCCCC2)cn1 [Example 412, (S)—N-(6-Amino-pyridin-3-ylmethyl)-3-(3-chloro-phenyl)-2-(2-piperidin-1-yl-acetylamino)-propionamide]  9.3 nM
17. Cc1cc(C)c(C(=O)N[C@@H](Cc2ccccc2)C(=O)NCc2ccc(N)nc2)[nH]1 [Example 237, 3,5-Dimethyl-1H-pyrrole-2-carboxylic acid {(S)-1-[(6-amino-pyridin-3-ylmethyl)-carbamoyl]-2-phenyl-ethyl}-amide]  10.9 nM
18. CCN(C)[C@@H](Cc1ccccc1)C(=O)N[C@@H](Cc1ccc(F)c(F)c1)C(=O)NCc1ccc(N)nc1 [Example 352, (S)—N-[(S)-1-[(6-Amino-pyridin-3-ylmethyl)-carbamoyl]-2-(3,4-difluoro-phenyl)-ethyl]-2-(ethyl-methyl-amino)-3-phenyl-propionamide]  13.7 nM
19. COc1ccc2[nH]c(C(=O)N[C@@H](Cc3ccc(F)cc3)C(=O)NCc3ccc(N)nc3)cc2c1 [Example 332, 5-Methoxy-1H-indole-2-carboxylic acid [(S)-1-[(6-amino-pyridin-3-ylmethyl)-carbamoyl]-2-(4-fluoro-phenyl)-ethyl]-amide]  21.5 nM
20. Cc1nc(N)ccc1CNC(=O)[C@H](Cc1ccc(Cl)c(Cl)c1)NC(=O)[C@H]1CCc2ccccc2N1 [Example 202, (R)-1,2,3,4-Tetrahydro-quinoline-2-carboxylic acid [(S)-1-[(6-amino-2-methyl-pyridin-3-ylmethyl)-carbamoyl]-2-(3,4-dichloro-phenyl)-ethyl]-amide]  22.5 nM
21. CC(C)(C)[C@H](N)C(=O)N[C@@H](C(=O)NCc1ccc(N)nc1)C(C1CCCCC1)C1CCCCC1 [Example 217, (S)-2-Amino-N-{(R)-1-[(6-amino-pyridin-3-ylmethyl)-carbamoyl]-2,2-dicyclohexyl-ethyl}-3,3-dimethyl-butyramide]  29.3 nM
22. Nc1ccc(CNC(=O)[C@H](Cc2ccc(Cl)c(Cl)c2)NC(=O)CN2CCCCC2)cn1 [Example 404, (S)—N-(6-Amino-pyridin-3-ylmethyl)-3-(3,4-dichloro-phenyl)-2-(2-piperidin-1-yl-acetylamino)-propionamide]  33.4 nM
23. Cc1ccc(-c2ccc(C(=O)N[C@@H](Cc3cccc(Cl)c3)C(=O)NCc3ccc(N)nc3)[nH]2)cc1 [Example 297, 5-p-Tolyl-1H-pyrrole-2-carboxylic acid [(S)-1-[(6-amino-pyridin-3-ylmethyl)-carbamoyl]-2-(3-chloro-phenyl)-ethyl]-amide]  40.1 nM
24. COc1ccc2[nH]c(C(=O)N[C@@H](Cc3cccc(C(F)(F)F)c3)C(=O)NCc3ccc(N)nc3C)cc2c1 [Example 310, 5-Methoxy-1H-indole-2-carboxylic acid [(S)-1-[(6-amino-2-methyl-pyridin-3-ylmethyl)-carbamoyl]-2-(3-trifluoromethyl-phenyl)-ethyl]-amide]  48.9 nM
25. C[C@@H](C(=O)N[C@@H](CC1CCCCC1)C(=O)NCc1ccc(N)nc1)N(C)C [Example 391, (S)—N-{(S)-1-[(6-Amino-pyridin-3-ylmethyl)-carbamoyl]-2-cyclohexyl-ethyl}-2-dimethylamino-propionamide]  49.4 nM
26. CC(C)N1CCCC[C@@H]1C(=O)N[C@@H](Cc1ccc(F)cc1)C(=O)NCc1ccc(N)nc1 [Example 147, (R)-1-Isopropyl-piperidine-2-carboxylic acid [(S)-1-[(6-amino-pyridin-3-ylmethyl)-carbamoyl]-2-(4-fluoro-phenyl)-ethyl]-amide]  49.6 nM
27. CCC(C)[C@H](C(=O)N[C@@H](Cc1ccc(Cl)c(Cl)c1)C(=O)NCc1ccc(N)nc1)N(C)C(C)C (stereo partly drawn) [Example 155, (R)-2-(Isopropyl-methyl-amino)-3-methyl-pentanoic acid [(S)-1-[(6-amino-pyridin-3-ylmethyl)-carbamoyl]-2-(3,4-dichloro-phenyl)-ethyl]-amide]  63.3 nM
28. Cc1nc(N)ccc1CNC(=O)[C@H](Cc1cccc2ccccc12)NC(=O)c1cc2cc(F)ccc2[nH]1 [Example 305, 5-Fluoro-1H-indole-2-carboxylic acid {(S)-1-[(6-amino-2-methyl-pyridin-3-ylmethyl)-carbamoyl]-2-naphthalen-1-yl-ethyl}-amide]  119 nM
29. Cc1c[nH]c(C(=O)N[C@@H](Cc2ccc(F)cc2)C(=O)NCc2ccc(N)nc2)c1 [Example 260, 4-Methyl-1H-pyrrole-2-carboxylic acid [(S)-1-[(6-amino-pyridin-3-ylmethyl)-carbamoyl]-2-(4-fluoro-phenyl)-ethyl]-amide]  150 nM
30. CN1CCC[C@@H]1C(=O)N[C@@H](Cc1ccc(C(C)(C)C)cc1)C(=O)NCc1ccc(N)nc1 [Example 102, (R)-1-Methyl-pyrrolidine-2-carboxylic acid [(S)-1-[(6-amino-pyridin-3-ylmethyl)-carbamoyl]-2-(4-tert-butyl-phenyl)-ethyl]-amide]  258 nM
31. CC(C)CN(C)CC(=O)N[C@@H](Cc1ccc(F)c(F)c1)C(=O)NCc1ccc(N)nc1 [Example 168, (S)—N-(6-Amino-pyridin-3-ylmethyl)-3-(3,4-difluoro-phenyl)-2-[2-(isobutyl-methyl-amino)-acetylamino]-propionamide]  291 nM
